The structures appear in SMILES notation.

The results in this text go back to patent US20110288052A1, “NOVEL COMPOUNDS, PHARMACEUTICAL COMPOSITIONS CONTAINING SAME, AND METHODS OF USE FOR SAME” (priority 2008, published 2011).

The target of the experiment is T1, Human FAS purified from ZR-75-1 human breast cancer cells (Homo sapiens, UniProt P49327).
T1 construct: Human FAS was purified from cultured ZR-75-1 human breast cancer cells; endogenous in cells; host or cells: ZR-75-1 human breast cancer cells (ATCC); enzyme purified by hypotonic lysis, PEG precipitation and Mono Q anion exchange
T1 sequence (P49327 2-2511 limits assumed): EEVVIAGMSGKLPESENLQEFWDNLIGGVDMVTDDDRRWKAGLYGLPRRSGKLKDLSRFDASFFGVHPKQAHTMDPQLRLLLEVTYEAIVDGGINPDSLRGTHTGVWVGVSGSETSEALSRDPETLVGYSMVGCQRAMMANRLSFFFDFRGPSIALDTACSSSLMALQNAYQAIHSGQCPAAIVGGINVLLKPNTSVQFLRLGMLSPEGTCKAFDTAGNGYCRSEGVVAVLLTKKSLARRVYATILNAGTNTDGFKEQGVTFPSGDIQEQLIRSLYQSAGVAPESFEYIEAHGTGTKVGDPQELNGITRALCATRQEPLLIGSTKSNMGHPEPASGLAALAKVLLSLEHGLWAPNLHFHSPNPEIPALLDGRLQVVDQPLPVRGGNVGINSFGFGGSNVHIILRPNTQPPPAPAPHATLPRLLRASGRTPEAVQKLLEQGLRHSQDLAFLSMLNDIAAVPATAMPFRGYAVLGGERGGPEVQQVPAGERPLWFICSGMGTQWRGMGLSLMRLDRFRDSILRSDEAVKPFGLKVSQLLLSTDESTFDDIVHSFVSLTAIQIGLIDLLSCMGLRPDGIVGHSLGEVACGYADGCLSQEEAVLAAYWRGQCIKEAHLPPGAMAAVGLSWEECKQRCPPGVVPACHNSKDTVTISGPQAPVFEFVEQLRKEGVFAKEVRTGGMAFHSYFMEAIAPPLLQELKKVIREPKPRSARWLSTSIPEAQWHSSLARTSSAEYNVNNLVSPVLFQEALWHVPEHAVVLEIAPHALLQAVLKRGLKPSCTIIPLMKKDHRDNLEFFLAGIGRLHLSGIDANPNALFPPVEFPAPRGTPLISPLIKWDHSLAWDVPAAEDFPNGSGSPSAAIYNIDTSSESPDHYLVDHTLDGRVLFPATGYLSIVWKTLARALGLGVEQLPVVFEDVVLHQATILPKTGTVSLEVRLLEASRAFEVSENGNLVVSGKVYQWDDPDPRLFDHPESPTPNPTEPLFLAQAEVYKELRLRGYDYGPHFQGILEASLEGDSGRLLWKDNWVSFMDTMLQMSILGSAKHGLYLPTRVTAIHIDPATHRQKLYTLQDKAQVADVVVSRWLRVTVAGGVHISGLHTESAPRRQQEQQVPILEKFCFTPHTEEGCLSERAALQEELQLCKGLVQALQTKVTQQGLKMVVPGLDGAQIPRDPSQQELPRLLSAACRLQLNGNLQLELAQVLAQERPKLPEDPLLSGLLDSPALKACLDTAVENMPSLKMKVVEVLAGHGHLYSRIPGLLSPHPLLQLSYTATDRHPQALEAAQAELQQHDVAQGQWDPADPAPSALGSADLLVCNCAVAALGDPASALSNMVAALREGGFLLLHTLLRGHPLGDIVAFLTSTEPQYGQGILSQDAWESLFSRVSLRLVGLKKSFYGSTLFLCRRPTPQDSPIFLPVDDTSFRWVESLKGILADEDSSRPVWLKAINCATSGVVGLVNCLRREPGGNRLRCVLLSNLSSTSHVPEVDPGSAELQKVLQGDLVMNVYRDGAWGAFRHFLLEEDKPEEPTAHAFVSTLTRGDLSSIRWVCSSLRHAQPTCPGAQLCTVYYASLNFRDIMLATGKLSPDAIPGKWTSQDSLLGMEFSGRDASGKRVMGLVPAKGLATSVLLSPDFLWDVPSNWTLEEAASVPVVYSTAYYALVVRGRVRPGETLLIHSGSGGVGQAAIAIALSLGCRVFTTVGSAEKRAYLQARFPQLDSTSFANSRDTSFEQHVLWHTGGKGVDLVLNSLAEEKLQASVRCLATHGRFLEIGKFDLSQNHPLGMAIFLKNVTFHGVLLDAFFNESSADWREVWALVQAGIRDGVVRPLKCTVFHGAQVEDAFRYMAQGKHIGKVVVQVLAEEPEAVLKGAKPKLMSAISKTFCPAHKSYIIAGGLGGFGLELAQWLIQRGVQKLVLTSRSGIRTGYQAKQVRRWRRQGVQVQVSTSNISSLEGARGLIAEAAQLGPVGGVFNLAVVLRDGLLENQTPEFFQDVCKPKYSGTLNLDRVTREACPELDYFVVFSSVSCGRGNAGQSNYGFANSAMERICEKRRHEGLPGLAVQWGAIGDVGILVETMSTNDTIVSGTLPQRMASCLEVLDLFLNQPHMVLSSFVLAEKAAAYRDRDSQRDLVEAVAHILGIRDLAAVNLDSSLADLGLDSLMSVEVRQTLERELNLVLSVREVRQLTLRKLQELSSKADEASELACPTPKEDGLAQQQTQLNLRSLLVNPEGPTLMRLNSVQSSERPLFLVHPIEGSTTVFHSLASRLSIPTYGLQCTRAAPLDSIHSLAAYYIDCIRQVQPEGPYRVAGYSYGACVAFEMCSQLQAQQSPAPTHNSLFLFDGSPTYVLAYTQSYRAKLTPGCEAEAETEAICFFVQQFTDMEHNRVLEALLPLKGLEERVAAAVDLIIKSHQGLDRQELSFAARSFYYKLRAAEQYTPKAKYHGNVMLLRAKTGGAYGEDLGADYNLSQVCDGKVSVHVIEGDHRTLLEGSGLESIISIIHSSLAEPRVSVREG
Kind of experiment: FAS enzymatic activity (malonyl-CoA dependent NADPH oxidation). In kind it is biochemical. The settings on record: (SB). As to the method:
Purification of FAS from ZR-75-1 Human Breast Cancer Cells. Human FAS was purified from cultured ZR-75-1 human breast cancer cells obtained from the American Type Culture Collection. The procedure, adapted from Linn et al., 1981, and Kuhajda et al., 1994, utilizes hypotonic lysis, successive polyethyleneglycol (PEG) precipitations, and anion exchange chromatography. ZR-75-1 cells are cultured at 37° C. with 5% CO2 in RPMI culture medium with 10% fetal bovine serum, penicillin and streptomycin.
Ten T150 flasks of confluent cells are lysed with 1.5 ml lysis buffer (20 mM Tris-HCl, pH 7.5, 1 mM EDTA, 0.1 mM phenylmethanesulfonyl fluoride (PMSF), 0.1% Igepal CA-630) and bounce homogenized on ice for 20 strokes. […] FAS protein concentration is determined using the Coomassie Plus Protein Assay Reagent (Pierce) according to manufacturer's specifications using BSA as a standard. […]
Measurement of FAS Enzymatic Activity and Determination of the IC50 of the Compounds FAS activity is measured by monitoring the malonyl-CoA dependent oxidation of NADPH spectrophotometrically at OD340 in 96-well plates (Dils et al and Arslanian et al, 1975). […]
The assay is performed on a Molecular Devices SpectraMax Plus Spectrophotometer. […] The plate is read again as above with the kinetic protocol to measure the malonyl-CoA dependent NADPH oxidation. […]

One may read the IC50 as the concentration needed to halve the response being measured. Low readings indicate inhibition by little substance, high ones a need for much substance. As to `CCCCCCCCC1(C)SC(=O)C=C1OCC(=O)Nc1ccc(Cl)cc1` (centres unmarked), the IC50 is 266 µM.
Consider `CCCCCCCCC1(C)SC(=O)C=C1OCC(=O)Nc1ccc(Cl)cc1Cl` (centres unmarked), for which the “FAS (IC50)” value was “Neg (SB)”.
